Test results as given in publication PMC8522722, “Safety and Pharmacokinetics in Human Volunteers of Taniborbactam (VNRX-5133), a Novel Intravenous β-Lactamase Inhibitor” (Antimicrobial Agents and Chemotherapy, 2021).

Assays:
[1] = Cardiodynamic ECG assessment and concentration-QT effect model (SAD part); assay type: in vivo, human
Method: ECG and pharmacokinetic data from the SAD part of the study were used to construct a concentration-QT effect model to assess potential QT effects. The primary cardiodynamic safety parameter was the corrected QT interval by Fredericia (QTcF). The potential impact of taniborbactam on other ECG intervals and T-wave morphology was also assessed. The ECG monitoring in the study was intensive, with continuous Holter 12-lead ECGs recorded on day 1. ECG data used in the modeling consisted of extracted replicates at time points that matched the pharmacokinetic data. The concentration-QT effect model included the entire single-dose range of between 62.5 mg and 1,500 mg taniborbactam.

[2] = parameters: species or system human; settings: in vivo
Description: To assess possible metabolites of taniborbactam, plasma and urine samples were pooled across subjects by time points, processed, and analyzed by ultra-high performance liquid chromatography tandem mass spectrometry with a quadrupole time-of-flight mass spectrometer, for acquisition of high-resolution accurate mass data, in positive mode with electrospray ionization, incorporating in-line UV detection with a photodiode array detector (Waters Acquity UPLC). The acquired chromatographic and mass spectral data were compared to analogous data obtained for the corresponding predose and placebo-dose samples to identify metabolites potentially associated with taniborbactam metabolism. Chromatographic peaks observed to be unique to the samples were subject to investigation by mass spectrometric techniques.

[3] = parameters: species or system human; settings: in vivo; remark: listed apart in the source
Method: Eligible subjects were randomized to receive either taniborbactam or placebo in a 3:1 ratio within dose cohorts in both the SAD and MAD parts of the study. Each dose cohort in the SAD part of the study enrolled 8 subjects, and each dose cohort in the MAD part of the study enrolled 12 subjects. In the SAD part, subjects received 62.5, 125, 250, 500, 1,000, or 1,500 mg taniborbactam as a 2-h intravenous (i.v.) infusion. In the MAD part, subjects received 2-h intravenous i.v. infusions of 250, 500, or 750 mg taniborbactam q8h over 10 days, ending after a final morning dose on day 10 (total of 28 doses).
Safety was assessed based on the occurrence of adverse events and evaluation of laboratory tests (chemistry, hematology, urinalysis), physical examination, vital signs, and 12-lead electrocardiograms (ECGs) that were performed throughout the study. Safety was followed through 7 days postdose in the SAD part and followed through 7 days post-last dose in the MAD part.

NCCN[C@H]1CC[C@H](CC(=O)N[C@H]2Cc3cccc(C(=O)O)c3OB2O)CC1 [Taniborbactam]
QT effect (ΔΔQTcF) from exposure-response analysis ([1]; plasma concentrations up to 80,000 ng/ml (Cmax of 1,500 mg dose)): ≤ 10 ms | effect on heart rate, T-wave morphology, PR and QRS interval ([1]; single doses 62.5 to 1,500 mg): did not have an effect | biotransformation products with a detectable UV response in pooled plasma samples [2]: no significant taniborbactam biotransformation products | subjects with adverse events considered by the investigator to be treatment related [3]: 4 subjects
